Results on four compounds are retold here after ChEMBL document CHEMBL4196183, “Discovery of New Allosteric Modulators of the Urotensinergic System through Substitution of the Urotensin II-Related Peptide (URP) Phenylalanine Residue” (J Med Chem, 2018).

The structures appear in SMILES notation.

The target of assay [1] is T1, Urotensin-2 receptor (Rattus norvegicus) (UniProt P49684).
T1 sequence (whole entry): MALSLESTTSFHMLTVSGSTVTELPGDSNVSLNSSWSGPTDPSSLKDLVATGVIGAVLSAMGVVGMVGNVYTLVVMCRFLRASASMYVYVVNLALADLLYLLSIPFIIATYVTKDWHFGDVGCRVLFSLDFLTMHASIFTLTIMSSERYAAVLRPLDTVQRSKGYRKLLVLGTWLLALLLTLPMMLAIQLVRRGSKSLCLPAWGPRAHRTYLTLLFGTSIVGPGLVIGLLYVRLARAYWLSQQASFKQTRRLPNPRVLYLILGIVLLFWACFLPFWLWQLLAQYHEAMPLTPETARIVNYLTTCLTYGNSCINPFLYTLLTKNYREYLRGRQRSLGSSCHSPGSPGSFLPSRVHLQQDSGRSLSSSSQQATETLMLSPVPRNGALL
The assay can be described thus: Agonist activity at UT receptor in Sprague-Dawley rat thoracic aortic ring assessed as induction of contraction at 10^-5M relative to KCl-induced contraction. The assay is classed as functional.

Assay [2] deals with T1, Urotensin-2 receptor (Rattus norvegicus). The assay can be described thus: Antagonist activity at UT receptor in Sprague-Dawley rat thoracic aortic ring assessed as reduction in urotensin-2-induced contraction by measuring Emax for human urotensin-2-induced contraction at 1 uM pre-incubated for 30 mins before urotensin-2 stimulation relative to KCl-induced contraction (reference value: 101 +/- 4%). The assay is classed as functional.

Assay [3] shares this target. As to the kind of experiment: Antagonist activity at UT receptor in Sprague-Dawley rat thoracic aortic ring assessed as reduction in URP-induced contraction by measuring Emax for […] at 1 uM pre-incubated for 30 mins […] relative to KCl-induced contraction (reference value: 107 +/- 3%). Format: functional.

Assay [4] deals with T2, Urotensin-2 receptor (Homo sapiens) (UniProt Q9UKP6).
T2 sequence (whole entry): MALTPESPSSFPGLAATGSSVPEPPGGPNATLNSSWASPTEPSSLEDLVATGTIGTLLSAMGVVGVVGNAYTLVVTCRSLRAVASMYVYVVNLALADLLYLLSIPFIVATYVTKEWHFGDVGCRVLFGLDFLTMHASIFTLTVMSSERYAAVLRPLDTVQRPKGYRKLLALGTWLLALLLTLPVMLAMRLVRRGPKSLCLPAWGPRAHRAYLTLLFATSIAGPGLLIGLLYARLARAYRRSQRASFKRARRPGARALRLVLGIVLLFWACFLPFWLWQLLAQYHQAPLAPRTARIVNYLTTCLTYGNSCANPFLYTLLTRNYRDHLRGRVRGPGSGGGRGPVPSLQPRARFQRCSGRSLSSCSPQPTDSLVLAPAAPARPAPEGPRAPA
As to the kind of experiment: Agonist activity at human UT receptor expressed in HEK293 cells co-expressing Gq-polycistronic BRET biosensor assessed as induction of Gq activation measured for 5 mins by luminescence detection based BRET assay relative to 10 uM URP. Format: functional, cell-based.

In assay [5] the target is T2, Urotensin-2 receptor (Homo sapiens). The assay can be described thus: Agonist activity at human UT receptor expressed in HEK293 cells co-expressing G12-polycistronic BRET biosensor assessed as induction of G12 activation measured for 5 mins by luminescence detection based BRET assay relative to 10 uM URP. Format: functional, cell-based. (In general: Bioluminescence resonance energy transfer reports proximity on the nanometre scale.)

Assay [6] shares this target. The assay can be described thus: Agonist activity at human UT receptor expressed in HEK293 cells co-expressing beta-arrestin1-polycistronic BRET biosensor assessed as induction of beta-arrestin1 recruitment measured for 5 mins by luminescence detection based BRET assay relative to 10 uM URP. Format: functional, cell-based.
For assay [7] the target is unchanged. The assay can be described thus: Selectivity index, change in deltalog(Tau/KA) for agonist activity at human UT receptor expressed in HEK293 cells co-expressing G12-polycistronic BRET biosensor assessed as induction of G12 activation by luminescence detection based BRET assay to deltalog(Tau/KA) for agonist activity at human UT receptor expressed in HEK293 cells co-expressing Gq-polycistronic BRET biosensor assessed as induction of Gq activation by luminescence detection based BRET assay. Format: functional, cell-based.

Assay [8] shares this target. The assay can be described thus: Bias factor, ratio of deltalog(Tau/KA) for agonist activity at human UT receptor expressed in HEK293 cells co-expressing G12-polycistronic BRET biosensor assessed as induction of G12 activation by luminescence detection based BRET assay to deltalog(Tau/KA) for agonist activity at human UT receptor expressed in HEK293 cells co-expressing Gq-polycistronic BRET biosensor assessed as induction of Gq activation by luminescence detection based BRET assay. The assay is classed as functional, cell-based.

For assay [9] the target is unchanged. The assay can be described thus: Bias factor, ratio of deltalog(Tau/KA) for agonist activity at human UT receptor expressed in HEK293 cells co-expressing Gq-polycistronic BRET biosensor assessed as induction of Gq activation by luminescence detection based BRET assay to deltalog(Tau/KA) for agonist activity at human UT receptor expressed in HEK293 cells co-expressing G12-polycistronic BRET biosensor assessed as induction of G12 activation by luminescence detection based BRET assay. Format: functional, cell-based.

For assay [10] the target is unchanged. As to the kind of experiment: Selectivity index, change in deltalog(Tau/KA) for agonist activity at human UT receptor expressed in HEK293 cells co-expressing Gq-polycistronic BRET biosensor assessed as induction of Gq activation by luminescence detection based BRET assay to deltalog(Tau/KA) for agonist activity at human UT receptor expressed in HEK293 cells co-expressing beta-arrestin1-polycistronic BRET biosensor assessed as induction of beta-arrestin1 recruitment by luminescence detection based BRET assay. Format: functional, cell-based.

Assay [11] shares this target. The assay can be described thus: Bias factor, ratio of deltalog(Tau/KA) for agonist activity at human UT receptor expressed in HEK293 cells co-expressing Gq-polycistronic BRET biosensor assessed as induction of Gq activation by luminescence detection based BRET assay to deltalog(Tau/KA) for agonist activity at human UT receptor expressed in HEK293 cells co-expressing beta-arrestin1-polycistronic BRET biosensor assessed as induction of beta-arrestin1 recruitment by luminescence detection based BRET assay. Format: functional, cell-based.

The target is the same in assay [12]. The assay can be described thus: Bias factor, ratio of deltalog(Tau/KA) for agonist activity at human UT receptor expressed in HEK293 cells co-expressing beta-arrestin1-polycistronic BRET biosensor assessed as induction of beta-arrestin1 recruitment by luminescence detection based BRET assay to deltalog(Tau/KA) for agonist activity at human UT receptor expressed in HEK293 cells co-expressing Gq-polycistronic BRET biosensor assessed as induction of Gq activation by luminescence detection based BRET assay. The assay is classed as functional, cell-based.

The target is the same in assay [13]. The assay can be described thus: Selectivity index, change in deltalog(Tau/KA) for agonist activity at human UT receptor expressed in HEK293 cells co-expressing beta-arrestin1-polycistronic BRET biosensor assessed as induction of beta-arrestin1 recruitment by luminescence detection based BRET assay to deltalog(Tau/KA) for agonist activity at human UT receptor expressed in HEK293 cells co-expressing G12-polycistronic BRET biosensor assessed as induction of G12 activation by luminescence detection based BRET assay to. Format: functional, cell-based.

Assay [14] has the same target. The assay can be described thus: Bias factor, ratio of deltalog(Tau/KA) for agonist activity at human UT receptor expressed in HEK293 cells co-expressing beta-arrestin1-polycistronic BRET biosensor assessed as induction of beta-arrestin1 recruitment by luminescence detection based BRET assay to deltalog(Tau/KA) for agonist activity at human UT receptor expressed in HEK293 cells co-expressing G12-polycistronic BRET biosensor assessed as induction of G12 activation by luminescence detection based BRET assay. The assay is classed as functional, cell-based.

The target is the same in assay [15]. The assay can be described thus: Bias factor, ratio of deltalog(Tau/KA) for agonist activity at human UT receptor expressed in HEK293 cells co-expressing G12-polycistronic BRET biosensor assessed as induction of G12 activation by luminescence detection based BRET assay to deltalog(Tau/KA) for agonist activity at human UT receptor expressed in HEK293 cells co-expressing beta-arrestin1-polycistronic BRET biosensor assessed as induction of beta-arrestin1 recruitment by luminescence detection based BRET assay. Format: functional, cell-based.

In assay [16] the target is T1, Urotensin-2 receptor (Rattus norvegicus). The assay can be described thus: Agonist activity at UT receptor in Sprague-Dawley rat thoracic aortic ring assessed as induction of contraction relative to KCl-induced contraction. The assay is classed as functional.

As usually defined, the Emax is the greatest response seen or fitted, relative to the assay's reference. Take `CC(C)[C@H](NC(=O)[C@@H]1CSSC[C@H](NC(=O)[C@H](N)CC(=O)O)C(=O)N[C@@H](Cc2ccc(I)cc2)C(=O)N[C@@H](Cc2c[nH]c3ccccc23)C(=O)N[C@@H](CCCCN)C(=O)N[C@@H](Cc2ccc(O)cc2)C(=O)N1)C(=O)O`: the Emax came out at 49% in [1]; 95% in [2]; 107% in assay [3]; 91% in assay [4]; 91% in [5]; 97% in assay [6]. In assay [7], the deltalog(Tau/KA) was 0.64. Besides, the fold change (FC) worked out at 4.3 in assay [8]; 0.2 in assay [9]; 0.2 in assay [11]; 5.3 in assay [12]; 1.2 in assay [14]; 0.8 in assay [15]. In addition, in [10], the selectivity index, deltadeltalog(Tau/KA) was -0.73. Moreover, in assay [13], the deltadeltalog(Tau/KA) (beta-arrestin1 selectivity index) was found to be 0.09.

For `CC(C)[C@H](NC(=O)[C@@H]1CSSC[C@H](NC(=O)[C@@H](C)N)C(=O)N[C@@H](Cc2ccc(-c3ccccc3)cc2)C(=O)N[C@@H](Cc2c[nH]c3ccccc23)C(=O)N[C@@H](CCCCN)C(=O)N[C@@H](Cc2ccc(O)cc2)C(=O)N1)C(=O)O`, the Emax came out at 10% in assay [16]; 95% in assay [2]; 91% in assay [3]; 102% in assay [4]; 74% in assay [5]; 60% in [6]. In addition, the deltalog(Tau/KA) in assay [7] was 1.7. Further, the fold change (FC) in assay [8] was found to be 50; in assay [9], 0; in [11], 0.1; in assay [12] it was 14.4; in [14] it was 0.3; in assay [15], 3.5. Moreover, the selectivity index, deltadeltalog(Tau/KA) in assay [10] was -1.16. Also, in assay [13], the deltadeltalog(Tau/KA) (beta-arrestin1 selectivity index) is -0.54.

Regarding `CC(C)[C@H](NC(=O)[C@@H]1CSSC[C@H](NC(=O)[C@@H](C)N)C(=O)N[C@@H](Cc2ccc(I)cc2)C(=O)N[C@@H](Cc2c[nH]c3ccccc23)C(=O)N[C@@H](CCCCN)C(=O)N[C@@H](Cc2ccc(O)cc2)C(=O)N1)C(=O)O`, the Emax in assay [16] is 20%; in [2], 52%; in [3] it was 100%; in [4], 87%; in [5], 68%; in [6] it was 99%. Moreover, the deltalog(Tau/KA) in [7] stood at 0.89. Besides, the fold change (FC) in assay [8] worked out at 7.8; in assay [9], 0.1; in assay [11], 0.1; in [12], 8.6; in assay [14] it was 1.1; in assay [15], 0.9. Further, in [10], the selectivity index, deltadeltalog(Tau/KA) is -0.94. Besides, in [13], the deltadeltalog(Tau/KA) (beta-arrestin1 selectivity index) came to 0.04.

For `CC(C)[C@H](NC(=O)[C@@H]1CSSC[C@H](NC(=O)[C@@H](C)N)C(=O)N[C@@H](Cc2ccc(C#Cc3ccccc3)cc2)C(=O)N[C@@H](Cc2c[nH]c3ccccc23)C(=O)N[C@@H](CCCCN)C(=O)N[C@@H](Cc2ccc(O)cc2)C(=O)N1)C(=O)O`, the Emax came out at 8% in assay [16]; 100% in assay [2]; 104% in [3]; 101% in assay [4]; 72% in [5]; 36% in assay [6]. In assay [7], the deltalog(Tau/KA) was determined as 1.08. Moreover, the fold change (FC) in [8] came to 12.1; in assay [9], 0.1; in assay [11], 0.5; in assay [12] it was 2.2; in assay [14], 0.2; in assay [15], 5.6. In addition, in assay [10], the selectivity index, deltadeltalog(Tau/KA) was -0.34. Moreover, in assay [13], the deltadeltalog(Tau/KA) (beta-arrestin1 selectivity index) is -0.75.
